Results on 1 compound are retold here after paper PMC8795197, “Safety and activity of WX-0593 (Iruplinalkib) in patients with ALK- or ROS1-rearranged advanced non-small cell lung cancer: a phase 1 dose-escalation and dose-expansion trial” (Signal Transduction and Targeted Therapy, 2022).

Like-named read-outs stand apart in the source and are kept apart here. Where only a bound is given, the exact number is not on record here.

The target of one series is M1 (Homo sapiens, UniProt P11229). The series can be described thus: GPCR antagonist screening assay. It counts as cell-based.
Series [1] in a line: Repeated-dose toxicity study, 28 days oral gavage. It counts as in vivo, rats. The note with it: for AUC(0-t): po, read-out: AUC0-24h (Day 28). On the procedure: The severely toxic dose in 10% of the animals (STD10) in rodents was > 30 mg/kg. At a dose of 10 mg/kg/day, AUC0-24h (Day 28) was 16800 h·ng/mL in males and 17300 h·ng/mL in females, which is 4.5 times and 4.7 times of the exposure at the effective dose in mice (2.5 mg/kg, AUC0-24h: 3700 h·ng/mL). At a dose of 30 mg/kg/day, AUC0-24h (Day 28) was 27100 h·ng/mL in males and 42400 h·ng/mL in females, which is 7.3 times and 11.5 times of the exposure at the effective dose in nude mice (2.5 mg/kg, AUC0-24h: 3700 h·ng/mL).

Chain of M1 (P11229 whole entry): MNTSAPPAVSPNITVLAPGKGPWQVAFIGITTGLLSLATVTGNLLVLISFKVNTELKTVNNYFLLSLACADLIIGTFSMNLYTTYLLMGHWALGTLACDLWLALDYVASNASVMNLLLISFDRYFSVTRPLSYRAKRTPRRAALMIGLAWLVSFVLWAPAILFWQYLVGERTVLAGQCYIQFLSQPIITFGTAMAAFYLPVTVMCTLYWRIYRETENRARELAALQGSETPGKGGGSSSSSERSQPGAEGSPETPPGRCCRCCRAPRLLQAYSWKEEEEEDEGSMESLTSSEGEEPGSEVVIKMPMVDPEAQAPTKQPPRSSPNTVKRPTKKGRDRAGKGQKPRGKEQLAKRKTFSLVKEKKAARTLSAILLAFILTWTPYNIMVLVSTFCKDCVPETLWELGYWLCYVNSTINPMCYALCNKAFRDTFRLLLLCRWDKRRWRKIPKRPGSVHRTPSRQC

On M1, `COc1cc(N2CCC3(CCN(C)CC3)CC2)ccc1Nc1ncc(Cl)c(Nc2ccccc2P(C)(C)=O)n1` [WX-0593] came in with an IC50 above 10 µM. The “exposure as multiple of that at the effective dose in mice” value in series [1] (10 mg/kg/day, females) is given as 4.7 times; in series [1] (10 mg/kg/day, males) it was 4.5 times. Further, the “exposure as multiple of that at the effective dose in nude mice” value in series [1] (30 mg/kg/day, females) was found to be 11.5 times; in series [1] (30 mg/kg/day, males) it was 7.3 times. Moreover, the human equivalent dose in series [1] (1/10 of rat STD10, 60 kg/person) came to 29 mg/person. Moreover, the “severely toxic dose in 10% of the animals (STD10)” value in series [1] (28 days oral gavage) is reported as above 30 mg/kg. Besides, the AUC(0-t) in series [1] (female, rat, in vivo, 10 mg/kg/day, females) was found to be 17300 ng·h/mL; in series [1] (female, rat, in vivo, 30 mg/kg/day, females), 42400 ng·h/mL; in series [1] (male, rat, in vivo, 10 mg/kg/day, males) it was 16800 ng·h/mL; in series [1] (male, rat, in vivo, 30 mg/kg/day, males), 27100 ng·h/mL. The NOAEL at 28 days in series [1] (rat, in vivo, 28 days oral gavage) amounted to 10 mg/kg/day.

For orientation: IC50 means the concentration needed to halve the response being measured. Usually NOAEL stands for the highest dose or exposure tested at which no adverse effect was seen.
